Read-outs that look alike come from different tables or passages of the source.
Legend:
[1] = test system: low dosed STZ induced diabetic rats; test: Antihyperglycaemic activity in low dosed streptozotocin induced diabetic rats (STZ); assay type: in vivo, rat; conditions: low dosed STZ diabetic rats, compounds 100 mg/kg, Januvia 50 mg/kg
Procedure: (§1) The test compounds and standard antidiabetic drug Januvia were prepared in 1.0% freshly prepared Gum acacia.
Assessment of Test Compounds for Antihyperglycaemic Activity in Low Dosed Streptozotocin Induced Diabetic Rats—
Induction of Diabetes in Rats:
Overnight starved male albino rats of Sprague Dawley strain were used and Diabetes was induced in the animals by single intraperitoneal injection of Streptozotocin at 60 mg/kg body weight dose prepared in 0.1M citrate buffer (pH 4.5). Fasting blood glucose level was measured by using a Glucometer (ACCU-CHEK II; Roche Diagnostics, USA) after 48 hours and animals showing blood glucose level above 300 mg/di were considered as diabetic.
The diabetic animals were divided into four groups (Group 1 to 4) each consisting 6 rats. Group 1 received 0.4 ml vehicle (1% gum acacia). Group 2 received the test compound 5 at an oral dose of 100 mg/kg/body weight. Group 3 was given compound 6 at an oral dose of 100 mg/kg/body weight. The standard antidiabetic drug Januvia was given to the animals of Group 4 at an oral dose of 50 mg/kg body weight. […] Food but not water was withheld from the cages during the course of experimentation. Percent hyperglycemic activity was determined by comparing the AUC (area under curve) of experimental groups with that of the vehicle treated control group.
(§2) Quantitative glucose tolerance of each animal was calculated by the area under the curve (AUC) method using Prism Software. The area under the curve of the control group and the experimental group was compared to determine the percent antihyperglycaemic activity. Statistical comparisons were performed by one-way analysis of variance (ANOVA), followed by Dunnett's multiple range test (DMRT). The results were considered statistically significant if the ‘p’ values were 0.05 or less. Results were expressed as mean±SEM.

[2] = test system: sucrose loaded normoglycaemic rats; test: Antihyperglycaemic activity on sucrose loaded normoglycaemic rats (SLM); assay type: in vivo, rat; conditions: sucrose loaded normoglycaemic rats, compounds 100 mg/kg, Januvia 50 mg/kg; for Blood Glucose Profile 0 min: 0 min (fasting baseline); for Blood Glucose Profile 120 min: 120 min post sucrose
Procedure: as §1
Assessment of Test Compounds for Antihyperglycaemic Activity on Sucrose Loaded Normoglycaemic Rats—
In order to search towards the antidiabetic activity, synthetic compounds were preliminary evaluated for their effect on glucose tolerance in normal rats. It is an indirect effect of measuring antihyperglycaemic activity. Male albino rats of Wistar strain of body weight 160±20 g were selected for this study. The blood glucose of each animal was checked by glucometer using glucostrips (Accu-check) after 16 hours starvation. Animals showing blood glucose between 60 to 80 mg/dl (3.33 to 4.44 mM) were divided into groups of five to six animals in each. Rats of experimental group were administered suspension of the desired test compound orally (made in 1.0% gum acacia). The standard dose decided for Synthetic compounds is 100 mg/kg body weight. Animals of control group were given an equal amount of 1.0% gum acacia. A sucrose load (10.0 g/kg) was given to each animal orally exactly after 30 min post administration of the test sample/vehicle. Blood glucose profile of each rat was again determined at 30, 60, 90 and 120 min post administration of sucrose by glucometer. Food but not water was withheld from the cages during the course of experimentation. Quantitative glucose tolerance of each animal was calculated by area under curve (AUC) method using Prism Software. Comparing the AUC of experimental and control groups determined the percentage antihyperglycaemic activity. Statistical comparison was made by Dunnett's test.
as §2

[3] = test system: sucrose challenged STZ induced diabetic rats; test: Antihyperglycaemic activity in sucrose challenged streptozotocin (STZ)-induced diabetic rats (STZ-S); assay type: in vivo, rat; conditions: compounds 100 mg/kg, Januvia 50 mg/kg
Procedure: The test compounds and standard antidiabetic drug Januvia were prepared in 1.0% freshly prepared Gum acacia. Assessment of Test Compounds for Antihyperglycaemic Activity in Sucrose Challenged Streptozotocin STZ-Induced Diabetic Rats— Induction of Diabetes in Rats: Overnight starved male albino rats of Sprague Dawley strain were used and Diabetes was induced in the animals by single intraperitoneal injection of Streptozotocin at 60 mg/kg body weight dose prepared in 0.1M citrate buffer (pH 4.5). Fasting blood glucose level was measured by using a Glucometer (ACCU-CHEK II; […] Grouping and Treatment: […] All the diabetic animals were again divided into groups with five animals in each group. Animals of one group were regarded as the control group (orally administered 1% gum acacia) and the others were treated as the experimental groups. […] Animals of the control group were given an equal amount of 1.0% gum acacia. The standard antidiabetic drug Januvia was given to the animals at an oral dose of 50 mg/kg body weight. […] Food but not water was withheld from the cages during the course of experimentation. Percent hyperglycemic activity was determined by comparing the AUC (area under curve) of experimental groups with that of the vehicle treated control group. Quantitative glucose tolerance of each animal was calculated by the area under the curve (AUC) method using Prism Software. The area under the curve of the control group and the experimental group was compared to determine the percent antihyperglycaemic activity. Statistical comparisons were performed by one-way analysis of variance (ANOVA), followed by Dunnett's multiple range test (DMRT). […] Results were expressed as mean±SEM.

[4] = target: T1, human recombinant PTP1B enzyme (Homo sapiens, UniProt P18031); test: Protein tyrosine phosphatase-1B assay (colorimetric kit BML-AK 822); assay type: biochemical; conditions: read-out: % Inhibition (PTP-1B)
T1 construct: purchased Enzo Life Sciences, USA BML-AK 822
T1 sequence (P18031 1-322 limits assumed): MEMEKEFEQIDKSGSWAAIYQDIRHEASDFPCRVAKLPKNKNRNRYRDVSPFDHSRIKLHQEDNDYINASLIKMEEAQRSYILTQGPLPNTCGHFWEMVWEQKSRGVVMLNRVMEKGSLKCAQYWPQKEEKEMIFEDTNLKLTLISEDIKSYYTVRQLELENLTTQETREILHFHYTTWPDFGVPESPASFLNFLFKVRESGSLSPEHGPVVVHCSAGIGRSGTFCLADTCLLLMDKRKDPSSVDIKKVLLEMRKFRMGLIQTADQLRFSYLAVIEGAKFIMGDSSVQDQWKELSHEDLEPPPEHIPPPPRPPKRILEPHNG
Procedure: Assay was done according to the Kit manufacturers protocol, in brief the reaction was carried out in 96 well flat bottomed microtiter plate by the addition of assay buffer, solution of test compounds and diluted PTP1B enzyme. Enzyme reaction was initiated by addition of 50 μl of warmed 2× substrate then incubated the plate at 30° C. for 30 min. After incubation for 30 min. Reaction was terminated by addition of 25 μl of biomol red reagent and mixed thoroughly by repeated pipetting. […] Volumes and dilution of other component were accordingly as instructed in the manual provided in the kit. PTP1B phosphatase acting on the phosphopeptide substrate and release phosphate. The detection of free phosphate released is based on classic Malachite green assay. After adding biomol red to reaction wells after 30 minutes of incubation as described earlier the plate was incubated for another 20 min to develop the colour. Absorbance was recorded at 620 nm. on a microplate reader.

[5] = 0 min pre treatment (fasting baseline)
[6] = Table 5, evaluated at 10 μM concentration

In the case of `N[C@@H](CC(=O)N1CCn2c(nnc2C(F)(F)F)C1)Cc1cc(F)c(F)cc1F` [Januvia, reference compound], the “Blood Glucose Profile 0 min (Pre treatment)” value [1, 5] is reported as 341.4 ± 3.53 mg/dL, the “Blood Glucose Profile 30 min (Post treatment)” value ([1]; 30 min) is reported as 445.8 ± 13.0 mg/dL and the “Blood Glucose Profile 60 min (Post treatment)” value ([1]; 60 min) is reported as 497.4 ± 11.2 mg/dL. For the same molecule, the “Blood Glucose Profile 90 min (Post treatment)” value ([1]; 90 min) was 473.4 ± 11.2 mg/dL, the “Blood Glucose Profile 120 min (Post treatment)” value ([1]; 120 min) was 392.0 ± 11.8 mg/dL and the “Blood Glucose Profile 180 min (Post treatment)” value ([1]; 180 min) was 348.2 ± 16.7 mg/dL. For the same molecule, the “Blood Glucose Profile 240 min (Post treatment)” value ([1]; 240 min) was 300.4 ± 14.7 mg/dL, the “Blood Glucose Profile 300 min (Post treatment)” value ([1]; 300 min) was 255.0 ± 16.9 mg/dL and the “Blood Glucose Profile 1440 min (Post treatment)” value ([1]; 1440 min) was 484.4 ± 10.7 mg/dL. The “% Antihyperglycaemic activity STZ 0-5 h AUC” value ([1]; 0-5 h AUC, oral) was 28.2%, the “% Antihyperglycaemic activity STZ 0-24 h AUC” value ([1]; 0-24 h AUC, oral) was 27.4% and the “Blood Glucose Profile 0 min” value ([2]; mean ± S.E.) was 66.3 ± 3.12 mg/dL. The “Blood Glucose Profile 0 min” value ([2]; mean ± S.E., listed as januvia) was 66.2 ± 0.73 mg/dL, the “Blood Glucose Profile 30 min” value ([2]; 30 min post sucrose, mean ± S.E.) was 114.0 ± 8.21 mg/dL and the “Blood Glucose Profile 60 min” value ([2]; 60 min post sucrose, mean ± S.E.) was 104.8 ± 5.70 mg/dL. For the same molecule, the “Blood Glucose Profile 90 min” value ([2]; 90 min post sucrose, mean ± S.E.) was 112.0 ± 7.30 mg/dL, the “Blood Glucose Profile 120 min” value ([2]; mean ± S.E.) was 115.0 ± 7.67 mg/dL and the “Blood Glucose Profile 120 min” value ([2]; mean ± S.E., listed as januvia) was 115.0 ± 7.67 mg/dL. The “% Antihyperglycaemic activity SLM” value ([2]; AUC vs control, oral) was 35.0%, the “% Antihyperglycaemic activity STZ-S 0-5 h AUC” value ([3]; 0-5 h AUC, oral) was 21.8% and the “% Antihyperglycaemic activity STZ-S 0-24 h AUC” value ([3]; 0-24 h AUC, oral) was 23.8%. For the same molecule, the “Blood Glucose Profile 0 min (Pre treatment)” value [3, 5] was 222.3 ± 16.2 mg/dL, the “Blood Glucose Profile 30 min (Post treatment)” value ([3]; 30 min) was 455.0 ± 14.2 mg/dL and the “Blood Glucose Profile 60 min (Post treatment)” value ([3]; 60 min) was 519.8 ± 16.0 mg/dL. For the same molecule, the “Blood Glucose Profile 90 min (Post treatment)” value ([3]; 90 min) was 469.3 ± 9.40 mg/dL, the “Blood Glucose Profile 120 min (Post treatment)” value ([3]; 120 min) was 439.3 ± 14.2 mg/dL and the “Blood Glucose Profile 180 min (Post treatment)” value ([3]; 180 min) was 377.6 ± 10.1 mg/dL. For the same molecule, the “Blood Glucose Profile 240 min (Post treatment)” value ([3]; 240 min) was 359.5 ± 10.1 mg/dL, the “Blood Glucose Profile 300 min (Post treatment)” value ([3]; 300 min) was 337.6 ± 8.18 mg/dL and the “Blood Glucose Profile 1440 min (Post treatment)” value ([3]; 1440 min) was 394.6 ± 8.34 mg/dL.

In the case of `Cc1ccc(C(=O)Nc2ccc(S(=O)(=O)O)c3cc(S(=O)(=O)O)cc(S(=O)(=O)O)c23)cc1NC(=O)c1cccc(NC(=O)Nc2cccc(C(=O)Nc3cc(C(=O)Nc4ccc(S(=O)(=O)O)c5cc(S(=O)(=O)O)cc(S(=O)(=O)O)c45)ccc3C)c2)c1` [Standard Suramin, suramin, reference compound], the inhibition at 10 µM [4, 6] is reported as 60.2%.

In the case of `COC(=O)c1c(SC)cc(-c2ccc(Br)cc2)c2c1-c1cn(-c3ccccc3)nc1CC2` [compound 1, methyl 6-(4-bromophenyl)-8-(methylthio)-2-phenyl-4,5-dihydro-2H-benzo[e]indazole-9-carboxylate], the melting point is reported as 164 to 166 °C and the inhibition at 10 µM [4] is reported as 9.2%.

With `COC(=O)c1c(SC)cc(-c2ccc(Cl)cc2)c2c1-c1cn(-c3ccccc3)nc1CC2` [compound 2, methyl 6-(4-chlorophenyl)-8-(methylthio)-2-phenyl-4,5-dihydro-2H-benzo[e]indazole-9-carboxylate] the melting point was 159 to 162 °C and the inhibition at 10 µM [4, 6] was 8%.

`COC(=O)c1c(SC)cc(-c2ccc(OC)cc2)c2c1-c1cn(-c3ccccc3)nc1CC2` [compound 3, methyl 6-(4-methoxyphenyl)-8-(methylthio)-2-phenyl-4,5-dihydro-2H-benzo[e]indazole-9-carboxylate] gave a melting point of 172 to 174 °C and an inhibition at 10 µM [4, 6] of 8.43%.

`COC(=O)c1c(SC)cc(-c2ccccc2)c2c1-c1cn(-c3ccccc3)nc1CC2` [compound 4, methyl 8-(methylthio)-2,6-diphenyl-4,5-dihydro-2H-benzo[e]indazole-9-carboxylate] showed a melting point of 173 to 175 °C and an inhibition at 10 µM [4, 6] of 16.4%.

For `COC(=O)c1c(SC)cc(-c2cccs2)c2c1-c1cn(-c3ccccc3)nc1CC2` [compound 7, methyl 8-(methylthio)-2-phenyl-6-(thiophen-2-yl)-4,5-dihydro-2H-benzo[e]indazole-9-carboxylate], the melting point was 174 to 176 °C and the inhibition at 10 µM [4, 6] was 12.7%.

`COC(=O)c1c(SC)cc(-c2ccc3ccccc3c2)c2c1-c1cn(-c3ccccc3)nc1C2` [compound 13, Methyl 5-(methylthio)-7-(naphthalen-2-yl)-2-phenyl-2,8-dihydroindeno[2,1-c]pyrazole-4-carboxylate] showed a melting point of 235 to 237 °C.

— patent US9096539B2, “Substituted 4,5-dihydro-2H-benzo[e]indazole-9-carboxylates for the treatment of diabetes and related disorders” (Council of Scientific & Industrial Research, priority 2012, dated 2015)
